The assay addresses T1, cardiac sodium channels Nav1.5 in the intercalated discs of cardiomyocytes (Mus musculus, UniProt Q9JJV9).
T1 construct: The heart was harvested and perfused in the Langendorff system; endogenous in cells; host or cells: primary adult mouse cardiomyocytes isolated from heart by Langendorff perfusion
In words: Nav1.5 density change in intercalated discs of cardiomyocytes (immunocytochemistry, confocal microscopy). Format: cell-based. Particulars: test compound at a concentration of 100 μM or higher vs. untreated sample, p<0.05.

T1 sequence (Q9JJV9 whole entry, the tested form may be a part): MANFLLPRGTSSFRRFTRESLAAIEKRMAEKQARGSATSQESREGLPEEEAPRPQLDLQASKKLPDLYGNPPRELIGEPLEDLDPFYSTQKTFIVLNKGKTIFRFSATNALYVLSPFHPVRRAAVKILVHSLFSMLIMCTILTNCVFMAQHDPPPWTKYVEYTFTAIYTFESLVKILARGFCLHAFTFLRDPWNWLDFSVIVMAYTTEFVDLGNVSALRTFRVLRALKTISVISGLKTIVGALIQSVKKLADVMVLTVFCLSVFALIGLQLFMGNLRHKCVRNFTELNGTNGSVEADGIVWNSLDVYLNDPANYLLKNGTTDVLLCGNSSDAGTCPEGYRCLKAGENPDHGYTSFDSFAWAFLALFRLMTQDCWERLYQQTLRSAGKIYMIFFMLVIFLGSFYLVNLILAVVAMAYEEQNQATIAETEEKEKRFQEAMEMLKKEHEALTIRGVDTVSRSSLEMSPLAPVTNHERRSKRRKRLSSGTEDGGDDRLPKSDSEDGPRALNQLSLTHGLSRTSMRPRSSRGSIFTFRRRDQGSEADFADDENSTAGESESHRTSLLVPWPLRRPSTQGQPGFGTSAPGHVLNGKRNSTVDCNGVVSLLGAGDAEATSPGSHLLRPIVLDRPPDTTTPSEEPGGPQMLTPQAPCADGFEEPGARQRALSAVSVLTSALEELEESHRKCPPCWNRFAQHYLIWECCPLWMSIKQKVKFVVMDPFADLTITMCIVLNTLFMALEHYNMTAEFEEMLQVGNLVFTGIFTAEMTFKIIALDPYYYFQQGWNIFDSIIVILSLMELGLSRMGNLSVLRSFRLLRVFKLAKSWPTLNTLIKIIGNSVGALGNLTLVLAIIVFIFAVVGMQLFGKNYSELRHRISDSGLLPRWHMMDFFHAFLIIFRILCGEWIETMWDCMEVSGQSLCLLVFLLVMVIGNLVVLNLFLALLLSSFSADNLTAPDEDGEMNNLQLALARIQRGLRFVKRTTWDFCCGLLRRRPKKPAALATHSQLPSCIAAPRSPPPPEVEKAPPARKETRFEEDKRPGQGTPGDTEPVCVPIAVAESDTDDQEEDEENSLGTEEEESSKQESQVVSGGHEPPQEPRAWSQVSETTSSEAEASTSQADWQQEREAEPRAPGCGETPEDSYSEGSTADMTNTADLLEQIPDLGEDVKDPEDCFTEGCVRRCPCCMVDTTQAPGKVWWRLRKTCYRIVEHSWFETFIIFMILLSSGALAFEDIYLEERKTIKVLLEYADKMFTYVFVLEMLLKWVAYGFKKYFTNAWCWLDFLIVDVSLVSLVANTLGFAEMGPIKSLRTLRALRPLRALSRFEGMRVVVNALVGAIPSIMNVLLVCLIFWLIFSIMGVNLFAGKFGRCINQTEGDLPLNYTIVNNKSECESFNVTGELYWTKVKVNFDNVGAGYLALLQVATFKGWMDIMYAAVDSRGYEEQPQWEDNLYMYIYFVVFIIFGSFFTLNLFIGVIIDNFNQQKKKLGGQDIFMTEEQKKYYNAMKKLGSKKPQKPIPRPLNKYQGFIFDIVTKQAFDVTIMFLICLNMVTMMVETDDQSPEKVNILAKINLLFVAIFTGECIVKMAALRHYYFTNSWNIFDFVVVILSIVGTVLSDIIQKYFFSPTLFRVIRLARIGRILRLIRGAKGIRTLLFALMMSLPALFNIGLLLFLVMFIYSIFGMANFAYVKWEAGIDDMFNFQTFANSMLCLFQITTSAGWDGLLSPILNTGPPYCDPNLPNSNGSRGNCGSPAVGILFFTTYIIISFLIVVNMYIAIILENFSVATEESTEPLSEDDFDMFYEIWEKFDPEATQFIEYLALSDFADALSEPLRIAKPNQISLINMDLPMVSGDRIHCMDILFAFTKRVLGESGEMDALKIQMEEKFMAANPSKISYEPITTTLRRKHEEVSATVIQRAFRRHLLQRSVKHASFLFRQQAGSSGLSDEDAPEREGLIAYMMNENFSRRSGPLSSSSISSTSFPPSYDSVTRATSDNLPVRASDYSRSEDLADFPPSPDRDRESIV
Description: Briefly, the mice were injected with 200 IU heparin i.p. prior to sacrifice. The thoracic chamber was opened and a cannula with perfusion solution was inserted from the atria. The heart was harvested and perfused in the Langendorff system with Perfusion Buffer at 37° C. for 5 min, followed by Digestion Buffer until the heart muscle was pale and some signs of extracellular matrix dissociation appeared. The heart was perfused for additional 5 min with Perfusion Buffer to stop the dissociation. The cardiomyocytes were mechanically dissociated in TB-A and then plated on ECM-coated (Sigma cat. no. E-1270) petri dish (Zell-Kontakt cat. no. 5160-30). […]
Confocal images of red and green immunofluorescence of stained cardiomyocytes were acquired, e.g. on a Leica confocal laser scanning unit TCS NT, which is coupled to a Leica DM IRB microscope. […] Fluorescence signals of Nav1.5 staining were recorded at 20%, 50% and 80% laser intensity, and fluorescence signals of cadherin was recorded at 80% laser intensity to generate the Region of Interest (ROI) (modified from Yampolsky et al., 2010, a). All images were digitally saved and later processed with Image) (NIH, Bethesda, Md., USA) software using proprietary quantification methods and standard Image) plug-ins.
ROI were set as defined by the fluorescence signals of the cadherin staining, which represented the intercalated discs. […]

As to `O=C(NCC1CCCCN1)c1cc(OCC(F)(F)F)ccc1OCC(F)(F)F` (stereo not shown) [flecainide], the “change of the Nav1.5 density in comparison to the untreated sample” value is reported as “significant change”.

The values above are taken from US10254273B2, “Method and kit for assessment of sodium channel-related anti- or pro-arrhythmic potential of compounds” (RUPRECHT-KARLS-UNIVERSITAET HEIDELBERG, priority 2014, dated 2019).
